According to patent publication US8722849B2, “Polypeptides” (Novo Nordisk A/S, priority 2011, dated 2014):
pEC50: −log10 of the molar value. Values after ≈ are worked out from the molar mass of the structure shown. Read-outs that look alike come from different tables or passages of the source. Starred links: 1 amine or outer side, 2 acyl side, 3 side chain; linkers in the order of their positions; H or OH if unused. Positions of bridges follow the written chain, without caps; N, C: chain ends. Residues, ends and D or L forms follow the SMILES beside them. *: point of attachment. C20 diacid = O=C(O)CCCCCCCCCCCCCCCCCCC(=O)*; γGlu = O=C(O)[C@H](CCC(=O)[*:2])N[*:1]

Tests used:
[1] = Assay (III) ThT fibrillation assay for physical stability; format: physicochemical; conditions: ThT fibrillation assay
Outline: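 Freshly prepared formulations, pH-adjusted, with 1 μM ThT; four or eight replicates incubated at 37 °C under 960 rpm orbital shaking. Fluorescence (ex 444/em 485 nm) read every 20 min; […]. Peptide concentration measured by RP-HPLC before and after the run.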

[2] = molecular target: T1, human amylin receptor (amylin 3(a) receptor: human calcitonin receptor + RAMP-3) (Homo sapiens, UniProt O60896+P30988); experiment: Assay (II)a functional CRE-luciferase assay, human amylin receptor; format: cell-based; conditions: Table 2; BHK amylin 3(a)-receptor/CRE-luc cells
T1 construct: expressed in transfected cells; host or cells: BHK570
T1 sequence (P30988 25-474): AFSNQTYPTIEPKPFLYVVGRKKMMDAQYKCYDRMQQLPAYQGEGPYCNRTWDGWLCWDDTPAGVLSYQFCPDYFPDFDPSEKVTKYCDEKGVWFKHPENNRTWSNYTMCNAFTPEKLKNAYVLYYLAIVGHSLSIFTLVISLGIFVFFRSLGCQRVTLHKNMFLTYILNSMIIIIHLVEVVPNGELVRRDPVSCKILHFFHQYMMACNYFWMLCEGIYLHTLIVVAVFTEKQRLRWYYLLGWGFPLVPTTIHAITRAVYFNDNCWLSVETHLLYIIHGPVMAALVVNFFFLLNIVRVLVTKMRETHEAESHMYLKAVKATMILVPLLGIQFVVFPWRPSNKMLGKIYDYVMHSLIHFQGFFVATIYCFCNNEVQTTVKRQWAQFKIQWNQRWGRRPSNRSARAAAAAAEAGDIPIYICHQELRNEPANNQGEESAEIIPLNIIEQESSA
T1 sequence (O60896 24-148 partner): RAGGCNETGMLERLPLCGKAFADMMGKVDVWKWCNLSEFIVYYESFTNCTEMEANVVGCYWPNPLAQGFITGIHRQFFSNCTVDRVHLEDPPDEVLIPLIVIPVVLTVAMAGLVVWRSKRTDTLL

[3] = Assay (IV) determination of solubility; format: physicochemical
Outline: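 Eight 100 mM buffers (glycylglycine pH 3.0–5.0, bistrispropane pH 6.0–8.0) each received an equal volume of polypeptide dissolved in water at ~500 nmol/ml. Soluble polypeptide was measured by HPLC following 18 hours at room temperature and centrifugation.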

[4] = molecular target: T2, human calcitonin receptor (Homo sapiens, UniProt P30988); experiment: Assay (II)a functional CRE-luciferase assay, human calcitonin receptor; format: cell-based; conditions: Table 7; human calcitonin (CTa) receptor
T2 construct: expressed in transfected cells; host or cells: BHK570
T2 sequence (P30988 25-474): T1 sequence (P30988 25-474)

CC[C@H](C)[C@H](NC(=O)[C@@H]1CCCN1C(=O)CNC(=O)[C@H](Cc1ccccc1)NC(=O)[C@H](CC(N)=O)NC(=O)[C@H](CC(=O)O)NC(=O)[C@H](CO)NC(=O)[C@H](CO)NC(=O)[C@H](Cc1c[nH]cn1)NC(=O)[C@H](Cc1c[nH]cn1)NC(=O)[C@H](CC(C)C)NC(=O)[C@H](Cc1ccccc1)NC(=O)[C@H](CCC(=O)O)NC(=O)[C@H](C)NC(=O)[C@H](CC(C)C)NC(=O)[C@H](CCCNC(=N)N)NC(=O)[C@H](CCC(N)=O)NC(=O)[C@@H](NC(=O)[C@H](C)NC(=O)[C@@H]1CSSC[C@H](NC(=O)[C@H](CCCCN)NC(=O)CC[C@H](NC(=O)CCCCCCCCCCCCCCCCCCC(=O)O)C(=O)O)C(=O)N[C@@H](CC(N)=O)C(=O)N[C@@H]([C@@H](C)O)C(=O)N[C@@H](C)C(=O)N[C@@H]([C@@H](C)O)C(=O)N1)[C@@H](C)O)C(=O)N[C@@H](CC(C)C)C(=O)N1CCC[C@H]1C(=O)N1CCC[C@H]1C(=O)N[C@H](C(=O)N[C@@H](CC(N)=O)C(=O)N[C@H](C(=O)NCC(=O)N[C@@H](CO)C(=O)N[C@@H](Cc1c[nH]cn1)C(=O)N[C@H](C(=O)N[C@@H](Cc1ccc(O)cc1)C(N)=O)[C@@H](C)O)C(C)C)[C@@H](C)O [Example 128, N-alpha-[(S)-4-Carboxy-4-(19-carboxynonadecanoylamino)butyryl]-[Glu14,His17,Asp21,His35]-pramlintide] ({C20 diacid-γGlu}-KCNTATCATQRLAEFLHHSSDNFGPILPPTNVGSHTY-NH2; disulfide 2-7 (inferred); C-terminus assumed)
ThT pH 4.0 lag time [1]: >45 h
ThT pH 4.0 lag time (h) [1]: >45 h
pEC50 [2]: 9.54
solubility at 18 h ([3]; pH 3.0, read-out: Solubility pH 3.0): > 200 µM
solubility at 18 h ([3]; pH 4.0, 18 hours at room temperature, Table 2, read-out: Solubility pH 4.0): > 200 µM
solubility at 18 h ([3]; pH 4.0, read-out: Solubility pH 4.0): >200 µM
solubility at 18 h ([3]; pH 5.0, read-out: Solubility pH 5.0): > 200 µM
solubility at 18 h ([3]; pH 6.0, read-out: Solubility pH 6.0): > 200 µM
solubility at 18 h ([3]; pH 6.5, read-out: Solubility pH 6.5): 114 µM (≈ 511 µg/mL)
solubility at 18 h ([3]; pH 7.0, 18 hours at room temperature, Table 3, read-out: Solubility pH 7.0): 140 µM (≈ 627 µg/mL)
solubility at 18 h ([3]; pH 7.0, read-out: Solubility pH 7.0): 140 µM (≈ 627 µg/mL)
solubility at 18 h ([3]; pH 7.5, read-out: Solubility pH 7.5): > 200 µM
solubility at 18 h ([3]; pH 8.0, read-out: Solubility pH 8.0): > 200 µM
pEC50 [4]: 9.58
